biological target: T1, viral kinase pUL-97 (Human cytomegalovirus, UniProt P16788); experiment: UL97 kinase assay on Immobilon plate; format: biochemical; details: inhibition of UL 97 kinase activity; class by IC50 / % inhibition at 10 μM or 100 μM; read-out: Activity Class [A, B, C]
T1 construct: The pUL-97 gene was cloned into a baculovirus vector; GST (glutathione S-transferase) (N); made in house; host or cells: Sf9 insect cells, baculovirus
Method: UL97 Kinase-Assay on Immobilon Plate
The effect of pyrazine derivatives of this invention was tested on the activity of the viral kinase pUL-97. This kinase is derived from human cytomegalovirus (HCMV) (M. Marschall et al., Journal of General Virology, 2001, 82, 1439-1450). The pUL-97 gene was cloned into a baculovirus vector in order to produce GST (glutathione S-transferase) fusion protein. Insect cells (Sf9) were infected and GST-UL-97 purified via glutathione affinity columns according to standard procedures.
The pUL-97 kinase reaction was performed as described (M. Marschall et al., Journal of General Virology, 2001, 82, 1439-1450). Briefly, 10 μl Assay buffer (3 μM ATP, 60 μg/ml myelin basic protein (MBP) as substrate), 1.0 μCi γ-[^33P]ATP and 10 μl Basic buffer (20 mM Tris-HCl pH7.5, 0.5 mM MnCl2, 1 mM DTT (Dithiothreitol)) were given to the test tube before adding various concentrations of pyrazine derivatives. The reaction was started by adding 0.2 μl pUL-97 kinase, purified from infected Sf9-insect cells as described above. The total volume was adjusted with Basic buffer to a final volume of 30 μl. The reaction mix was incubated for 1 hr at 30° C. For negative control, 10 μl 0.1M EDTA (Ethylene Diamine tetraacetate) was added to reaction mix before addition of pUL-97 protein kinase. The reaction was stopped by addition of 10 μl 0.1 M EDTA.
Measuring Incorporation of Radioactivity:
The Immobilon plate (Millipore) was rinsed with 50 μl methanol/well. Following addition of 100 μl 0.1 M EDTA, 20 μl of each kinase reaction mix was added to one well of the Immobilon plate. Each well was washed 4× with 250 μl 0.75% phosphoric acid and 1× with 50 μl methanol. After addition of 50 μl scintillation cocktail (Roth, Germany) per well incorporation of radioactivity was measured using a Betareader (Wallac) and enzymatic activity calculated.

T1 sequence (P16788 whole entry): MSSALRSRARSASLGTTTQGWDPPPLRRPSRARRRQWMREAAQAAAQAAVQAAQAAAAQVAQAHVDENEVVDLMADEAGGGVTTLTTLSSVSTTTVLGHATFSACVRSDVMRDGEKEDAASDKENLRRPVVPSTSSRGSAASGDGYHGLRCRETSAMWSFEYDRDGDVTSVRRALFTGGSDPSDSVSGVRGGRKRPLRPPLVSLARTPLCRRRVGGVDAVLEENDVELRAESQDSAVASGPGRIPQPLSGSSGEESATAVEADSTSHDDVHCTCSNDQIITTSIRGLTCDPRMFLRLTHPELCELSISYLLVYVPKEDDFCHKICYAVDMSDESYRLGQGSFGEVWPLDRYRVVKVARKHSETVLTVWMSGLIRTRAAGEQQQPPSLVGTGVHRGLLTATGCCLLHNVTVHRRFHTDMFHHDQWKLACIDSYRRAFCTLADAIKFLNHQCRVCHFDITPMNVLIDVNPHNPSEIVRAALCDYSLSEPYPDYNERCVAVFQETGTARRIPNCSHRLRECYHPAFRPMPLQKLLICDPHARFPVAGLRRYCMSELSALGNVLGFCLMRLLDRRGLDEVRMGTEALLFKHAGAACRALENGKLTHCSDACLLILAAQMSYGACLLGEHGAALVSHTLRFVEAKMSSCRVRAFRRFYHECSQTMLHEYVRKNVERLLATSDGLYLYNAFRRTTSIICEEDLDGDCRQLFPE

SMILES	IC50 [µM]
Cc1cccc(N2CCN(c3cncc(-c4csc5ccccc45)n3)CC2C)c1 (stereo not shown) [compound 279, 6′-Benzo[b]thiophen-3-yl-3-methyl-4-m-tolyl-3,4,5,6-tetrahydro-2H-[1,2′]bipyrazinyl]	10 to 100
Fc1cccc(-c2cncc(N3CCN(c4ccc(F)cc4F)CC3)n2)c1 [compound 211, 4-(2,4-Difluoro-phenyl)-6′-(3-fluoro-phenyl)-3,4,5,6-tetrahydro-2H-[1,2′]bipyrazinyl]	10 to 100
Cc1ccc(-c2cncc(N3CCN(c4cccc(Cl)c4)CC3)n2)cc1 [compound 237, 4-(3-Chloro-phenyl)-6′-p-tolyl-3,4,5,6-tetrahydro-2H-[1,2′]bipyrazinyl]	10 to 100
Fc1ccc(N2CCN(c3cncc(-c4ccc(-c5ccccc5)c(F)c4)n3)CC2)cc1 [compound 268, 6′-(2-Fluoro-biphenyl-4-yl)-4-(4-fluoro-phenyl)-3,4,5,6-tetrahydro-2H-[1,2′]bipyrazinyl]	10 to 100
CC(=O)c1ccc(-c2cncc(N3CCN(c4ccc(F)cc4F)CC3)n2)cc1 [compound 275, 1-{4-[4-(2,4-Difluoro-phenyl)-3,4,5,6-tetrahydro-2H-[1,2′]bipyrazinyl-6′-yl]-phenyl}-ethanone]	1 to 10
c1ccc(C2CCN(c3cncc(-c4ccoc4)n3)CC2)cc1 [compound 277, 2-Furan-3-yl-6-(4-phenyl-piperidin-1-yl)-pyrazine]	10 to 100
COc1cccc(N2CCN(c3cncc(-c4ccc(C(F)(F)F)cc4)n3)CC2)c1 [compound 356, 4-(3-Methoxy-phenyl)-6′-(4-trifluoromethyl-phenyl)-3,4,5,6-tetrahydro-2H-[1,2′]bipyrazinyl]	1 to 10
Cc1ccc(N2CCN(c3cncc(-c4csc5ccccc45)n3)CC2)cc1C [compound 317, 6′-Benzo[b]thiophen-3-yl-4-(3,4-dimethyl-phenyl)-3,4,5,6-tetrahydro-2H-[1,2′]bipyrazinyl]	10 to 100
Fc1ccc(-c2cncc(N3CCN(c4ccc(C(F)(F)F)cc4)CC3)n2)cc1 [compound 309, 6′-(4-Fluoro-phenyl)-4-(4-trifluoromethyl-phenyl)-3,4,5,6-tetrahydro-2H-[1,2′]bipyrazinyl]	10 to 100
COc1cccc(N2CCN(c3cncc(-c4ccc(C(N)=O)cc4)n3)CC2)c1 [compound 364, 4-[4-(3-Methoxy-phenyl)-3,4,5,6-tetrahydro-2H-[1,2′]bipyrazinyl-6′-yl]-benzamide]	1 to 10
Fc1ccc(N2CCN(c3cncc(-c4ccc(C(F)(F)F)cc4)n3)CC2)c(F)c1 [compound 210, 4-(2,4-Difluoro-phenyl)-6′-(4-trifluoromethyl-phenyl)-3,4,5,6-tetrahydro-2H-[1,2′]bipyrazinyl]	1 to 10
CSc1ccc(-c2cncc(N3CCC(c4ccccc4)CC3)n2)cc1 [compound 361, 2-(4-Methylsulfanyl-phenyl)-6-(4-phenyl-piperidin-1-yl)-pyrazine]	1 to 10

Other lines, results leading:

IC50 [µM]	SMILES
10 to 100	FC(F)(F)c1ccc(N2CCN(c3cncc(-c4ccoc4)n3)CC2)cc1 [compound 353, 6′-Furan-3-yl-4-(4-trifluoromethyl-phenyl)-3,4,5,6-tetrahydro-2H-[1,2′]bipyrazinyl]
10 to 100	Clc1ccc(N2CCN(c3cncc(-c4ccoc4)n3)CC2)cc1 [compound 349, 4-(4-Chloro-phenyl)-6′-furan-3-yl-3,4,5,6-tetrahydro-2H-[1,2′]bipyrazinyl]
10 to 100	Cc1ccc(N2CCN(c3cncc(-c4cccc(C)c4)n3)CC2)cc1 [compound 228, 6′-m-Tolyl-4-p-tolyl-3,4,5,6-tetrahydro-2H-[1,2′]bipyrazinyl]
1 to 10	COc1cccc(N2CCN(c3cncc(-c4ccc(F)cc4)n3)CC2)c1 [compound 367, 6′-(4-Fluoro-phenyl)-4-(3-methoxy-phenyl)-3,4,5,6-tetrahydro-2H-[1,2′]bipyrazinyl]
1 to 10	COc1ccc(N2CCN(c3cncc(-c4cc5ccccc5s4)n3)CC2)cc1 [compound 292, 6′-Benzo[b]thiophen-2-yl-4-(4-methoxy-phenyl)-3,4,5,6-tetrahydro-2H-[1,2′]bipyrazinyl]

same assay, conditions: inhibition of UL 97 kinase activity; class by IC50 / % inhibition at 10 or 100 μM; read-out: Activity Class [A, B, C]

SMILES	IC50 [µM]
O=C(c1ccco1)N1CCN(c2cncc(-c3cccc(CO)c3)n2)CC1 [compound 58, Furan-2-yl-[6′-(3-hydroxymethyl-phenyl)-2,3,5,6-tetrahydro-[1,2′]bipyrazinyl-4-yl]-methanone]	10 to 100
Cc1cccc(-c2cncc(N3CCN(c4cccc(C(F)(F)F)c4)CC3)n2)c1C [compound 156, 6′-(2,3-Dimethyl-phenyl)-4-(3-trifluoromethyl-phenyl)-3,4,5,6-tetrahydro-2H-[1,2′]bipyrazinyl]	10 to 100
CN(C)c1ccc(-c2cncc(N3CCN(c4ccccc4)CC3)n2)cc1 [compound 190, Dimethyl-[4-(4-phenyl-3,4,5,6-tetrahydro-2H-[1,2′]bipyrazinyl-6′-yl)-phenyl]-amine]	1 to 10
CCNc1cncc(-c2ccc(C(N)=O)cc2)n1 [compound 40, 4-(6-Ethylamino-pyrazin-2-yl)-benzamide]	1 to 10
COc1ccc(N2CCN(c3cncc(-c4cccs4)n3)CC2)cc1OC [compound 44, 4-(3,4-Dimethoxy-phenyl)-6′-thiophen-2-yl-3,4,5,6-tetrahydro-2H-[1,2′]bipyrazinyl]	1 to 10
COc1ccc(-c2cncc(NCCc3cccnc3)n2)cc1 [compound 18]	< 1
Oc1ccc(-c2cncc(N3CCN(c4ccncc4)CC3)n2)cc1 [compound 57, 4-(4-Pyridin-4-yl-3,4,5,6-tetrahydro-2H-[1,2′]bipyrazinyl-6′-yl)-phenol]	10 to 100
COc1ccc(N2CCN(c3cncc(-c4cc(C)cc(C)c4)n3)CC2)cc1OC [compound 170, 4-(3,4-Dimethoxy-phenyl)-6′-(3,5-dimethyl-phenyl)-3,4,5,6-tetrahydro-2H-[1,2′]bipyrazinyl]	10 to 100
Clc1ccc(-c2cncc(N3CCN(c4ccccn4)CC3)n2)cc1 [compound 14, 6′-(4-Chloro-phenyl)-4-pyridin-2-yl-3,4,5,6-tetrahydro-2H-[1,2′]bipyrazinyl]	10 to 100
NC(=O)c1ccc(-c2cncc(N3CCN(C(=O)c4ccco4)CC3)n2)cc1 [compound 34, 4-[4-(Furan-2-carbonyl)-3,4,5,6-tetrahydro-2H-[1,2′]bipyrazinyl-6′-yl]-benzamide]	< 1
COc1ccc(N2CCN(c3cncc(-c4ccc(F)cc4F)n3)CC2)cc1OC [compound 41, 6′-(2,4-Difluoro-phenyl)-4-(3,4-dimethoxy-phenyl)-3,4,5,6-tetrahydro-2H-[1,2′]bipyrazinyl]	10 to 100
COc1ccc(N2CCN(c3cncc(-c4cccc5ccccc45)n3)CC2)cc1OC [compound 43, 4-(3,4-Dimethoxy-phenyl)-6′-naphthalen-1-yl-3,4,5,6-tetrahydro-2H-[1,2′]bipyrazinyl]	10 to 100
COc1ccc(Cl)cc1-c1cncc(N2CCN(c3ccccc3OC)CC2)n1 [compound 91, 6′-(5-Chloro-2-methoxy-phenyl)-4-(2-methoxy-phenyl)-3,4,5,6-tetrahydro-2H-[1,2′]bipyrazinyl]	10 to 100

The next lines start with the values.

IC50 [µM]	SMILES
10 to 100	FC(F)(F)c1cc(-c2cncc(N3CCN(c4ccncc4)CC3)n2)cc(C(F)(F)F)c1 [compound 164, 6′-(3,5-Bis-trifluoromethyl-phenyl)-4-pyridin-4-yl-3,4,5,6-tetrahydro-2H-[1,2′]bipyrazinyl]
1 to 10	Clc1cccc(N2CCN(c3cncc(-c4ccoc4)n3)CC2)c1 [compound 84, 4-(3-Chloro-phenyl)-6′-furan-3-yl-3,4,5,6-tetrahydro-2H-[1,2′]bipyrazinyl]
10 to 100	COc1ccc(C(C)C)cc1-c1cncc(N2CCN(c3ccncc3)CC2)n1 [compound 55, 6′-(5-Isopropyl-2-methoxy-phenyl)-4-pyridin-4-yl-3,4,5,6-tetrahydro-2H-[1,2′]bipyrazinyl]
10 to 100	Cc1cc(C)cc(-c2cncc(N3CCN(c4ccccc4)CC3)n2)c1 [compound 192, 6′-(3,5-Dimethyl-phenyl)-4-phenyl-3,4,5,6-tetrahydro-2H-[1,2′]bipyrazinyl]
10 to 100	Fc1cccc(-c2cncc(N3CCN(c4ccccn4)CC3)n2)c1 [compound 56, 6′-(3-Fluoro-phenyl)-4-pyridin-2-yl-3,4,5,6-tetrahydro-2H-[1,2′]bipyrazinyl]
10 to 100	CCOc1ccccc1-c1cncc(N2CCN(c3ccc(C)cc3)CC2)n1 [compound 175, 6′-(2-Ethoxy-phenyl)-4-p-tolyl-3,4,5,6-tetrahydro-2H-[1,2′]bipyrazinyl]
1 to 10	N#Cc1ccccc1N1CCN(c2cncc(-c3ccc(Cl)cc3)n2)CC1 [compound 42, 2-[6′-(4-Chloro-phenyl)-2,3,5,6-tetrahydro-[1,2′]bipyrazinyl-4-yl]-benzonitrile]

Source: patent US20080194574A1, “Pyrazine Derivatives As Effective Compounds Against Infectious Diseases” (AXXIMA PHARMACEUTICALS AG, priority 2003, published 2008)
